Assay results taken from ChEMBL document CHEMBL5608141, “Identification of compartment-specific drug sensitivities in CRC organoid-stroma co-cultures” (2024).

Key:
Type in all cases: functional, Homo sapiens
Parameters in all cases: dose or concentration left out as unconfirmed
[1] = test system: Colon cancer organoid; test: Identification of compartment-specific drug sensitivities in O06 CRC organoid-stroma F06 CAF co-cultures. Organoid is transduced with Lucferase2-P2A-EGFP lentivirus, fibroblast with Renilla-dsRed lentivirus. Dual-Glo Luciferase assay is used to report viability data.
[2] = test system: Colon cancer organoid; test: Identification of compartment-specific drug sensitivities in O20 CRC organoid-stroma F20 CAF co-cultures. Organoid is transduced with Lucferase2-P2A-EGFP lentivirus, fibroblast with Renilla-dsRed lentivirus. Dual-Glo Luciferase assay is used to report viability data.
[3] = test system: Colon cancer organoid; test: Identification of compartment-specific drug sensitivities in O14 CRC organoid-stroma F14 CAF co-cultures. Organoid is transduced with Lucferase2-P2A-EGFP lentivirus, fibroblast with Renilla-dsRed lentivirus. Dual-Glo Luciferase assay is used to report viability data.
[4] = Transduced with Lucferase2-P2A-EGFP lentivirus
[5] = Transduced with Renilla-dsRed lentivirus

Row | Structure (SMILES) | Cell Viability [1, 4] [%] | Cell Viability [1, 5] [%] | Cell Viability [2, 4] [%] | Cell Viability [2, 5] [%] | Cell Viability [3, 4] [%] | Cell Viability [3, 5] [%]
1 | COc1cc(Nc2nccc(-c3cnn4nc(OC)ccc34)n2)cc(C(F)(F)F)c1 | 29.547 | 143.538 | 11.0854 | 189.711 | 7.4245 | 53.4313
2 | C[C@@H]1CCNC(=O)c2cc3ccc(C(=O)Nc4nc5ccccc5n4CCCN(C)C)cc3n21 | 65.6776 | 63.6239 | 65.8011 | 147.158 | 75.4357 | 82.3994
3 | COc1cc(-c2cn([C@H]3CCc4c(F)cccc4N(CC(F)(F)F)C3=O)nn2)ccc1-n1cnc(C)c1 | 62.2519 | 94.2085 | 119.382 | 109.286 | 128.088 | 98.8677
4 | Cn1cc(-c2[nH]c3cc(NC(=O)[C@H](N)C4CCCCC4)cc4c3c2C=NNC4=O)cn1 | 9.334 | 180.436 | 23.2406 | 172.741 | 1.912 | 87.1489
5 | CCc1cc2cc(NS(=O)(=O)c3ccc(C#N)cc3)ccc2n(CC)c1=O | 88.2132 | 102.933 | 196.577 | 99.0217 | 120.494 | 98.1699
6 | O=C(Nc1ccc(-c2ccnc(Nc3ccc(N4CCOCC4)cc3)n2)cc1)[C@@H]1CCCN1 | 100.254 | 96.014 | 139.273 | 76.0213 | 129.164 | 79.5845
7 | CN(C)C(=O)c1ccc(-c2cc(C(=O)N[C@@H]3CCc4ccccc43)no2)cc1O | 113.879 | 93.2478 | 99.2292 | 104.475 | 90.3054 | 109.902
8 | COc1cc(-c2cn([C@H]3CCc4ccccc4N(CC(F)(F)F)C3=O)nn2)ccc1-n1ccc(C)n1 | 66.2416 | 74.3796 | 70.0794 | 119.033 | 96.3015 | 79.1491
9 | C=CC(=O)Nc1ccc2[nH]c(=O)n(C3CCN(C(=O)c4ccc(-c5nc6cc[nH]c(=O)c6cc5-c5ccccc5)cc4)CC3)c2c1 | 100.634 | 129.997 | 102.668 | 80.5582 | 66.8064 | 102.36
10 | CN(C)C(=O)c1ccc(-c2cc(C(=O)N(C)C3CCCC3)no2)cc1O | 126.057 | 129.278 | 123.545 | 110.433 | 137.993 | 111.926
11 | CCN(Cc1ccc(Cl)cc1)c1ncc(C(=O)NCCCN2CCCC2=O)c(NC2CCCC2)n1 | 93.3549 | 154.26 | 67.2116 | 104.655 | 127.363 | 88.0275
12 | c1ccc2oc(-c3csc(C4CCN(Cc5nc6ncccc6[nH]5)CC4)n3)cc2c1 | 118.221 | 124.83 | 55.8704 | 105.216 | 115.362 | 96.8387
13 | COc1cc(Nc2nc(C)cc(-c3cnn4nc(OC)ccc34)n2)cc(C(F)(F)F)c1 | 17.5131 | 98.9895 | 136.021 | 99.6244 | 120.94 | 74.993
